# From US9963472B2, “Stable pantetheine derivatives for the treatment of pantothenate kinase associated neurodegeneration (PKAN) and methods for the synthesis of such compounds” (ACIES BIO D.O.O., priority 2013, dated 2018)
# What was measured:
# [1] = test system: dPANK/fbl down-regulated Drosophila-S2 cells; test: Rescue of cell survival in dPANK/fbl RNAi Drosophila S2 cells (PKAN cell model); assay type: cell-based; conditions: 100 μM; for rescue of cell count defect (cell survival): triplicate
# Source text: The down-regulation of […] ortholog in Drosophila) using RNAi approach in Drosophila S2 cells is an established in-vitro PKAN disease model (Rana, A. et al., PNAS, 2010, 107, 6988; Siudja et al., EMBO Mol med. 2011, 3, 755; Siudeja et al., PLoS One 2012, 7, e443145). Down-regulation of dPANK/fbl by RNAi, causes a decrease in the survival of cells. […] Materials and Methods: […]
# [2] = test system: Human HEK293 cells; test: Cellular toxicity (drop in cell counts) in HEK293 cells; assay type: cell-based; conditions: increasing concentrations
# [3] = test system: HEK293 cells treated with HOPAN; test: Rescue of HEK293 cells in HOPAN induced PKAN model; assay type: cell-based, human; conditions: 100 μM, HOPAN 0.5 mM, 4 days, HEK293, vitamin B5 deficient DMEM
# Procedure: Similar to Drosophila-S2 cells, the PKAN disease model can also be induced using HOPAN in mammalian cell lines. Rescue efficiency of (S)-acetyl-4′-phosphopantetheine and 4′-phosphopantetheine was studied in HOPAN induced PKAN model system, namely in mammalian HEK293 cells.
# Materials and Methods: HEK293 cells were cultured in vitamin B5 deficient DMEM (Thermo Scientific) supplemented with 10% dialysed FCS (Thermo Scientific) with and without HOPAN (0.5 mM) and (S)-acetyl-4′-phosphopantetheine and 4′-phosphopantetheine for 4 days. 100 μM of (S)-acetyl-4′-phosphopantetheine and 4′-phosphopantetheine was compared for its rescue efficiency.
# [4] = test system: protein acetylation; test: Rescue of protein acetylation defect in PKAN models; assay type: cell-based
# Source text: For a variety of diseases HDAC inhibitors are being used and specifically the valproic acid is currently used in diseases ranging from cancer, to epilepsy, to neurodegeneration. The disadvantage is that valproic acid has severe side effects.
# [5] = test system: Drosophila-S2 cells treated with HOPAN; test: Rescue in HOPAN assay, Drosophila S2 cells; assay type: cell-based; conditions: 100 μM, HOPAN 0.5 mM, two days
# Procedure: In an additional experiment, Drosophila-S2 cells treated with the chemical inhibitor HOPAN (hopanthenate, CAS 17097-76-6, IUPAC: calcium 4-[[(2R)-2,4-dihydroxy-3,3-dimethylbutanoyl]amino]butanoate). Cells treated with HOPAN also serve as a model for PKAN. Cells treated with HOPAN also show a reduction in cell viability.
# Materials and Methods: Drosophila Schneider's S2 cells were cultured and subjected to HOPAN (0.5 mM) treatment with and without (S)-acetyl-4′-phosphopantetheine and 4′-phosphopantetheine for two days (Siudeja. K. et al., EMBO Mol Med. 2011, 3, 755). 100 μM of (S)-acetyl-4′-phosphopantetheine and 4′-phosphopantetheine was compared for its rescue efficiency.
compound,measurement,setting,value
CC(C)(COP(=O)(O)O)[C@@H](O)C(=O)NCCC(=O)NCCS [4′-phosphopantetheine],rescue of cell count defect (cell survival),[1],rescued the cell count defect significantly
same,toxicity (drop in cell counts),[2],less toxic compared to pantethine
same,reduction of HOPAN induced cell count defect,[3],significantly reduced the HOPAN induced cell count defect
CC(/C=C/C(=O)NO)=C\[C@@H](C)C(=O)c1ccc(N(C)C)cc1 [Trichostatin A],rescue of protein acetylation defect,[4],rescue the protein acetylation defect
CCCC(CCC)C(=O)O [valproic acid],rescue of protein acetylation defect,[4],rescue the protein acetylation defect
(S)-acetyl-4′-phosphopantetheine,rescue of HOPAN induced cell count defect,[5],significantly rescued
same,rescue potential compared to the other compounds,[1],superior rescue potential as compared to pantethine and 4′-phosphopantetheine
same,rescue of cell count defect (cell survival),[1],rescued the cell count defect significantly
same,toxicity (drop in cell counts),[2],less toxic compared to pantethine
same,reduction of HOPAN induced cell count defect,[3],significantly reduced the HOPAN induced cell count defect
